Converted amounts (≈) assume the structure as drawn. Where two headings read alike, the source gives them in different places.
Assays:
[1] = Potentiometric titration of an aqueous solution; assay type: physicochemical; conditions: water
Text: The potentiometric equivalent is about 390.
The potentiometric equivalent is about 400.
The potentiometric equivalent is about 370.

[2] = Solubility (French Pharmacopoeia terms / in water); assay type: physicochemical
Protocol: 32232 RP and 35391 RP are of particular interest because of their activity on fungi and yeasts. 32232 RP, in the form of the internal salt, is characterised by the following physical properties:
Solubility: 35391 RP is soluble in water at the rate of about 10 mg/cc.

Candida albicans IP 200 = assay: Anti-fungal activity in vitro by dilution method; assay type: cell-based; conditions: IP200, 95 to 100% inhibition, read-out: Minimum active concentration (AC 95-100)
Protocol: (§1) Anti-fungal activity in vitro: The anti-fungal activity of 32232 RP and of 35391 RP towards a certain number of fungi has been determined by one of the dilution methods usually employed for this purpose. For each fungus, the smallest concentration of active substance which, under defined conditions, causes 95 to 100% inhibition of the fungus (AC 95-100) was determined. The results of the various determinations are summarised in Table III below, where the minimum active concentrations are expressed in micrograms of substance per cc. of test medium.

Saccharomyces cerevisiae = assay: Anti-fungal activity in vitro by dilution method; assay type: cell-based; conditions: 95 to 100% inhibition, read-out: Minimum active concentration (AC 95-100)
Protocol: as §1

Mucor corymbifer = assay: Anti-fungal activity in vitro by dilution method; assay type: cell-based; conditions: Lichtheimia corymbifera, 95 to 100% inhibition, read-out: Minimum active concentration (AC 95-100)
Protocol: as §1

[3] = test system: Saccharomyces ellipsoideus; assay: Anti-fungal activity in vitro by dilution method; assay type: cell-based; conditions: 95 to 100% inhibition, read-out: Minimum active concentration (AC 95-100)
Protocol: as §1

Microsporum canis = assay: Anti-fungal activity in vitro by dilution method; assay type: cell-based; conditions: 95 to 100% inhibition, read-out: Minimum active concentration (AC 95-100)
Protocol: as §1

Penicillium digitatum = assay: Anti-fungal activity in vitro by dilution method; assay type: cell-based; conditions: 95 to 100% inhibition, read-out: Minimum active concentration (AC 95-100)
Protocol: as §1

[4] = Anti-fungal activity in vitro by dilution method; assay type: cell-based; conditions: Trichophyton rubrum; 95 to 100% inhibition; Microsporum rubrum; read-out: Minimum active concentration (AC 95-100)
Protocol: as §1

Botrytis cinerea = assay: Anti-fungal activity in vitro by dilution method; assay type: cell-based; conditions: 95 to 100% inhibition, read-out: Minimum active concentration (AC 95-100)
Protocol: as §1

Epidermophyton floccosum = assay: Anti-fungal activity in vitro by dilution method; assay type: cell-based; conditions: 95 to 100% inhibition, read-out: Minimum active concentration (AC 95-100)
Protocol: as §1

Aspergillus fumigatus = assay: Anti-fungal activity in vitro by dilution method; assay type: cell-based; conditions: 95 to 100% inhibition, read-out: Minimum active concentration (AC 95-100)
Protocol: as §1

Candida albicans Hi 7 = assay: Anti-fungal activity in vitro by dilution method; assay type: cell-based; conditions: HI7, 95 to 100% inhibition, read-out: Minimum active concentration (AC 95-100)
Protocol: as §1

Blastomyces dermatitidis = assay: Anti-fungal activity in vitro by dilution method; assay type: cell-based; conditions: 95 to 100% inhibition, read-out: Minimum active concentration (AC 95-100)
Protocol: as §1

Rhizopus nigricans = assay: Anti-fungal activity in vitro by dilution method; assay type: cell-based; conditions: Rhizopus stolonifer, 95 to 100% inhibition, read-out: Minimum active concentration (AC 95-100)
Protocol: as §1

Candida krusei IP 208 = assay: Anti-fungal activity in vitro by dilution method; assay type: cell-based; conditions: Pichia kudriavzevii, IP208, 95 to 100% inhibition, read-out: Minimum active concentration (AC 95-100)
Protocol: as §1

Hansenula anomala = assay: Anti-fungal activity in vitro by dilution method; assay type: cell-based; conditions: 95 to 100% inhibition, read-out: Minimum active concentration (AC 95-100)
Protocol: as §1

Fusarium oxysporum = assay: Anti-fungal activity in vitro by dilution method; assay type: cell-based; conditions: 95 to 100% inhibition, read-out: Minimum active concentration (AC 95-100)
Protocol: as §1

Candida albicans Pa 1 = assay: Anti-fungal activity in vitro by dilution method; assay type: cell-based; conditions: PA1, 95 to 100% inhibition, read-out: Minimum active concentration (AC 95-100)
Protocol: as §1

Aspergillus niger = assay: Anti-fungal activity in vitro by dilution method; assay type: cell-based; conditions: 95 to 100% inhibition, read-out: Minimum active concentration (AC 95-100)
Protocol: as §1

[5] = test system: Trichophyton mentagrophytes; assay: Anti-fungal activity in vitro by dilution method; assay type: cell-based; conditions: 95 to 100% inhibition, read-out: Minimum active concentration (AC 95-100)
Protocol: as §1

[6] = test system: Saccharomyces pastorianus; assay: Anti-fungal activity in vitro by dilution method; assay type: cell-based; conditions: 95 to 100% inhibition, read-out: Minimum active concentration (AC 95-100)
Protocol: as §1

Toxicity in mice = conditions: mouse, in vivo; mice, oral; read-out: 50% lethal dose (LD50)
Candida albicans = assay: Anti-fungal activity in vivo, generalised candidosis in mice; set-up: species or system Candida albicans in mice; conditions: orally or subcutaneously, between 25 mg/kg and 200 mg/kg per day for 4 consecutive days
bacteria = assay: Bacteriostatic activity towards bacteria; assay type: cell-based
mice = assay: Toxicity in mice; conditions: mouse, in vivo, 1000 mg/kg
[7] = 0.1M hydrochloric acid, read-out: apparent pKa of basic group

Nc1ncnc2c1ncn2C1OC(CC(N)CCC(N)C(=O)O)C(O)C1O (stereo not drawn) [32232 RP]
pKa [1, 7]: 8.1 | pKa ([1]; 0.1M sodium hydroxide, read-out: apparent pKa of weak acid group): 9.8 | Solubility ([2]; in acetone, internal salt, French Pharmacopoeia): virtually insoluble | Solubility ([2]; in dimethylformamide, internal salt, French Pharmacopoeia): very slightly soluble | Solubility ([2]; in methanol, internal salt, French Pharmacopoeia): very slightly soluble | Solubility ([2]; in water, internal salt, French Pharmacopoeia): easily soluble | MIC (Candida albicans IP 200): 5 µg/mL (≈ 13.1 µM) | MIC (Saccharomyces cerevisiae): 0.3 µg/mL (≈ 0.787 µM) | MIC (Mucor corymbifer): > 500 µg/mL | MIC [3]: 0.9 µg/mL (≈ 2.36 µM) | MIC (Microsporum canis): > 500 µg/mL | MIC (Penicillium digitatum): 15 µg/mL (≈ 39.3 µM) | MIC [4]: > 500 µg/mL | MIC (Botrytis cinerea): > 500 µg/mL | MIC (Epidermophyton floccosum): > 500 µg/mL | MIC (Aspergillus fumigatus): > 500 µg/mL | MIC (Candida albicans Hi 7): 5 µg/mL (≈ 13.1 µM) | MIC (Blastomyces dermatitidis): 5 µg/mL (≈ 13.1 µM) | MIC (Rhizopus nigricans): > 500 µg/mL | MIC (Candida krusei IP 208): 4 µg/mL (≈ 10.5 µM) | MIC (Hansenula anomala): 2 µg/mL (≈ 5.24 µM) | MIC (Fusarium oxysporum): > 500 µg/mL | MIC (Candida albicans Pa 1): 3 µg/mL (≈ 7.87 µM) | MIC (Aspergillus niger): > 500 µg/mL | MIC [5]: > 500 µg/mL | MIC [6]: 0.3 µg/mL (≈ 0.787 µM) | LD50 (Toxicity in mice): > 1000 mg/kg | Anti-fungal activity in vivo against generalised candidosis (Candida albicans): particularly active | bacteriostatic activity towards bacteria (bacteria): generally devoid of bacteriostatic activity

Nc1ncnc2c1ncn2C1OC(CC2CCC(N)C(=O)N2)C(O)C1O (stereo not drawn) [35391 RP]
pKa [1, 7]: 7.7 | Solubility ([2]; in water, read-out: Solubility): ~10000 µg/mL (≈ 27500 µM) | MIC (Candida albicans IP 200): 70 µg/mL (≈ 193 µM) | MIC (Saccharomyces cerevisiae): 10 µg/mL (≈ 27.5 µM) | MIC (Mucor corymbifer): > 500 µg/mL | MIC [3]: 15 µg/mL (≈ 41.3 µM) | MIC (Microsporum canis): 300 µg/mL (≈ 826 µM) | MIC (Penicillium digitatum): 25 µg/mL (≈ 68.8 µM) | MIC [4]: 300 µg/mL (≈ 826 µM) | MIC (Botrytis cinerea): > 500 µg/mL | MIC (Epidermophyton floccosum): 250 µg/mL (≈ 688 µM) | MIC (Aspergillus fumigatus): > 500 µg/mL | MIC (Candida albicans Hi 7): 75 µg/mL (≈ 206 µM) | MIC (Blastomyces dermatitidis): 60 µg/mL (≈ 165 µM) | MIC (Rhizopus nigricans): > 500 µg/mL | MIC (Candida krusei IP 208): 60 µg/mL (≈ 165 µM) | MIC (Hansenula anomala): 35 µg/mL (≈ 96.3 µM) | MIC (Fusarium oxysporum): > 500 µg/mL | MIC (Candida albicans Pa 1): 40 µg/mL (≈ 110 µM) | MIC (Aspergillus niger): > 500 µg/mL | MIC [5]: 350 µg/mL (≈ 963 µM) | MIC [6]: 7 µg/mL (≈ 19.3 µM) | Toxicity (mice): non-toxic | Anti-fungal activity in vivo against generalised candidosis (Candida albicans): particularly active | bacteriostatic activity towards bacteria (bacteria): generally devoid of bacteriostatic activity
